Results as given in PMC9090415, “Discovery of small molecule inhibitors of Plasmodium falciparum apicoplast DNA polymerase” (Journal of Enzyme Inhibition and Medicinal Chemistry, 2022).

Target: P. falciparum apicoplast DNA polymerase (Pf-apPOL) (Plasmodium falciparum, UniProt Q8ILY1)
Test: Fluorescence-based high-throughput DNA polymerase assay (molecular beacon), primary screen and dose-response
Assay type: biochemical
Conditions: for DNA Pol: 90 min, 10 µM
In short: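 Single-point screening used 10 µM compound with 20 nM polymerase, 20 nM hairpin substrate and 6 µM dNTPs for 90 min at 25 °C. Confirmatory titrations (2.5–80 µM) followed fluorescence at three times, and IC50 was derived from a fit including a cooperativity term n.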

Sequence of P. falciparum apicoplast DNA polymerase (Pf-apPOL) (Q8ILY1 entry or part of it): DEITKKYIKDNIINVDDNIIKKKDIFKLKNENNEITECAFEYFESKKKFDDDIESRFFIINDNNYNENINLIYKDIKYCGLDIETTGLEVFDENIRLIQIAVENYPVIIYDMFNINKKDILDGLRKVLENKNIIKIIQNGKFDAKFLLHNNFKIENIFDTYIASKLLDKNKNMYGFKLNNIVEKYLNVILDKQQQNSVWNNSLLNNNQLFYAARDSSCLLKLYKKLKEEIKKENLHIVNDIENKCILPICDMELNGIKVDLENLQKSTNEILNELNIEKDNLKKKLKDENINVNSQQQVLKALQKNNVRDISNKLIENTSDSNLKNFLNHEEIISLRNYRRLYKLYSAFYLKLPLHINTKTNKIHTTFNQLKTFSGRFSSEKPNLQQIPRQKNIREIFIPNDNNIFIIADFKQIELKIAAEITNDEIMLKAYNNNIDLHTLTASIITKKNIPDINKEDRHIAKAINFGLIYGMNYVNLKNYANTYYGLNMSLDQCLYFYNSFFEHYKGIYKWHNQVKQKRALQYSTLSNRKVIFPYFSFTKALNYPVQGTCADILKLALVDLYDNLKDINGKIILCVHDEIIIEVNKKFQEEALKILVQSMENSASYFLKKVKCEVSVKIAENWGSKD

## N#Cc1c(C2CCCCC2)nc(Sc2ccc(C(F)(F)F)cc2[N+](=O)[O-])[nH]c1=O [Molecule 20, N#Cc1c(=O)[nH]c(nc1C1CCCCC1)Sc1ccc(cc1N(=O)=O)C(F)(F)F]
'DNA Pol' of the 186 hits list (primary screen result), unit not given
  DNA Pol: 99
DRC-1, concentration 2.5
  % inhibition Apo pol 10': 13.479%
DRC-1, concentration 5
  % inhibition Apo pol 10': 22.3075%
DRC-1, concentration 10
  % inhibition Apo pol 10': 58.5642%
DRC-1, concentration 20
  % inhibition Apo pol 10': 88.1341%
DRC-1, concentration 40
  % inhibition Apo pol 10': 96.8636%
DRC-1, concentration 80
  % inhibition Apo pol 10': 98.9889%
DRC-1, 90', concentration 2.5
  % inhibition Apol 90': 11.5568%
DRC-1, 90', concentration 5
  % inhibition Apol 90': 20.2551%
DRC-1, 90', concentration 10
  % inhibition Apol 90': 55.7655%
DRC-1, 90', concentration 20
  % inhibition Apol 90': 84.5767%
DRC-1, 90', concentration 40
  % inhibition Apol 90': 95.5899%
DRC-1, 90', concentration 80
  % inhibition Apol 90': 98.5408%
DRC-1, 180', concentration 2.5
  % inhibition apPOL 180': 4.639%
DRC-1, 180', concentration 5
  % inhibition apPOL 180': 10.6134%
DRC-1, 180', concentration 10
  % inhibition apPOL 180': 43.2916%
DRC-1, 180', concentration 20
  % inhibition apPOL 180': 78.9137%
DRC-1, 180', concentration 40
  % inhibition apPOL 180': 94.1749%
DRC-1, 180', concentration 80
  % inhibition apPOL 180': 98.1002%
DRC-2, 5', concentration 20 (unit not given)
  % inhibition Apo pol 5': 55%
DRC-2, 40', concentration 10 (unit not given)
  % inhibition Apol 40': 55%
DRC-2, 90', concentration 40 (unit not given)
  % inhibition ApPOL 90': 77%
DRC-2, 180', concentration 40 (unit not given)
  % inhibition apPOL 180': 77%
DRC-2, 5', concentration 2.5
  % inhibition Apo pol 5': 3.66%
DRC-2, 5', concentration 5
  % inhibition Apo pol 5': 11%
DRC-2, 5', concentration 10
  % inhibition Apo pol 5': 43%
DRC-2, 5', concentration 20
  % inhibition Apo pol 5': 55%
DRC-2, 5', concentration 40
  % inhibition Apo pol 5': 60%
DRC-2, 5', concentration 80
  % inhibition Apo pol 5': 61%
DRC-2, 40', concentration 2.5
  % inhibition Apol 40': 6.56%
DRC-2, 40', concentration 5
  % inhibition Apol 40': 16%
DRC-2, 40', concentration 10
  % inhibition Apol 40': 55%
DRC-2, 40', concentration 20
  % inhibition Apol 40': 68%
DRC-2, 40', concentration 40
  % inhibition Apol 40': 75%
DRC-2, 40', concentration 80
  % inhibition Apol 40': 78%
DRC-2, 90', concentration 2.5
  % inhibition ApPOL 90': 4.51%
DRC-2, 90', concentration 5
  % inhibition ApPOL 90': 13%
DRC-2, 90', concentration 10
  % inhibition ApPOL 90': 54%
DRC-2, 90', concentration 20
  % inhibition ApPOL 90': 69%
DRC-2, 90', concentration 40
  % inhibition ApPOL 90': 77%
DRC-2, 90', concentration 80
  % inhibition ApPOL 90': 82%
DRC-2, 180', concentration 2.5
  % inhibition apPOL 180': -0.258%
DRC-2, 180', concentration 5
  % inhibition apPOL 180': 7%
DRC-2, 180', concentration 10
  % inhibition apPOL 180': 46%
DRC-2, 180', concentration 20
  % inhibition apPOL 180': 64%
DRC-2, 180', concentration 40
  % inhibition apPOL 180': 77%
DRC-2, 180', concentration 80
  % inhibition apPOL 180': 85%
Primary screen value of the library well, unit not given
  DNA Pol: 99

## Cc1ccccc1NC(=O)Cn1ccc2c(=O)[nH]ccc21 [Molecule 50, O=C(Cn1ccc2c1cc[nH]c2=O)Nc1ccc(cc1)C]
'DNA Pol' of the 186 hits list (screen value)
  DNA Pol: 47
DRC-1, conc 2.5
  % inhibition Apo pol 10': 6.138%
DRC-1, conc 5
  % inhibition Apo pol 10': 25.5303%
DRC-1, conc 10
  % inhibition Apo pol 10': 50.7772%
DRC-1, conc 20
  % inhibition Apo pol 10': 84.6667%
DRC-1, conc 40
  % inhibition Apo pol 10': 88.6284%
DRC-1, conc 80
  % inhibition Apo pol 10': 86.1182%
DRC-1, 90', conc 2.5
  % inhibition Apol 90': 0%
DRC-1, 90', conc 5
  % inhibition Apol 90': 12.4445%
DRC-1, 90', conc 10
  % inhibition Apol 90': 34.9563%
DRC-1, 90', conc 20
  % inhibition Apol 90': 76.8341%
DRC-1, 90', conc 40
  % inhibition Apol 90': 88.9511%
DRC-1, 90', conc 80
  % inhibition Apol 90': 91.6504%
DRC-1, 180', conc 2.5
  % inhibition apPOL 180': -5.117%
DRC-1, 180', conc 5
  % inhibition apPOL 180': 1.53%
DRC-1, 180', conc 10
  % inhibition apPOL 180': 18.0817%
DRC-1, 180', conc 20
  % inhibition apPOL 180': 64.1474%
DRC-1, 180', conc 40
  % inhibition apPOL 180': 85.8042%
DRC-1, 180', conc 80
  % inhibition apPOL 180': 93.6476%
DRC-2, 5', conc 2.5
  % inhibition Apo pol 5': 8%
DRC-2, 5', conc 5
  % inhibition Apo pol 5': 16%
DRC-2, 5', conc 10
  % inhibition Apo pol 5': 39%
DRC-2, 5', conc 20
  % inhibition Apo pol 5': 47%
DRC-2, 5', conc 40
  % inhibition Apo pol 5': 49%
DRC-2, 5', conc 80
  % inhibition Apo pol 5': 42%
DRC-2, 5', concentration 5
  % inhibition Apo pol 5': 16%
DRC-2, 40', conc 2.5
  % inhibition Apol 40': 5%
DRC-2, 40', conc 5
  % inhibition Apol 40': 16%
DRC-2, 40', conc 10
  % inhibition Apol 40': 44%
DRC-2, 40', conc 20
  % inhibition Apol 40': 64%
DRC-2, 40', conc 40
  % inhibition Apol 40': 70%
DRC-2, 40', conc 80
  % inhibition Apol 40': 67%
DRC-2, 40', concentration 5
  % inhibition Apol 40': 16%
DRC-2, 90', conc 2.5
  % inhibition ApPOL 90': 0.827%
DRC-2, 90', conc 5
  % inhibition ApPOL 90': 13%
DRC-2, 90', conc 10
  % inhibition ApPOL 90': 41%
DRC-2, 90', conc 20
  % inhibition ApPOL 90': 65%
DRC-2, 90', conc 40
  % inhibition ApPOL 90': 75%
DRC-2, 90', conc 80
  % inhibition ApPOL 90': 73%
DRC-2, 180', conc 2.5
  % inhibition apPOL 180': -4%
DRC-2, 180', conc 5
  % inhibition apPOL 180': 2.7%
DRC-2, 180', conc 10
  % inhibition apPOL 180': 29%
DRC-2, 180', conc 20
  % inhibition apPOL 180': 60%
DRC-2, 180', conc 40
  % inhibition apPOL 180': 78%
DRC-2, 180', conc 80
  % inhibition apPOL 180': 78%
DRC-2, 180', concentration 40
  % inhibition apPOL 180': 78%
DRC-2, 180', concentration 80
  % inhibition apPOL 180': 78%
Primary screen value, "DNA Pol"
  DNA Pol: 47
